From US20170044104A1, “NEW PESTICIDAL COMPOUNDS AND USES” (BAYER CROPSCIENCE AG, priority 2013, published 2017)

Experiments:
Haemonchus contortus = Haemonchus contortus (HAEMCO) larval mortality assay; conditions: 120 h; for mortality at 20 ppm: application rate 20 ppm, after 5 days, read-out: activity (percentage of larval mortality); for Emax at 0.8 ppm / Emax at 4 ppm / Emax at 20 ppm: comparative test, 5 dat, read-out: % Efficacy
Experimental: (§1) Solvent: dimethyl sulfoxide
(§2) To produce a suitable preparation of active compound, 10 mg of active compound are dissolved in 0.5 ml solvent, and the concentrate is diluted with “Ringer's solution” to the desired concentration.
Approximately 40 larvae of the red stomach worm (Haemonchus contortus) are transferred into a test tube containing compound solution.
After 5 days percentage of larval mortality are recorded. 100% efficacy means all larvae are killed, 0% efficacy means no larvae are killed.

Cooperia curticei = Cooperia curticei (COOPCU) larval mortality assay; conditions: 120 h, application rate 20 ppm, after 5 days, read-out: activity (percentage of larval mortality)
Experimental: as §1, §2
Approximately 40 nematode larvae (Cooperia curticei) are transferred into a test tube containing the compound solution.
After 5 days percentage of larval mortality is recorded. 100% efficacy means all larvae are killed; 0% efficacy means no larvae are killed.

[1] = test system: Nippostrongylus brasiliensis; assay: Nippostrongylus brasiliensis (NIPOBR) assay, acetylcholine esterase readout; conditions: 10 ppm (10 μg/ml), adult worms, read-out: activity (reduction of AChE compared to negative control)
Experimental: Adult Nippostrongylus brasiliensis were washed with saline buffer containing 100 U/ml penicillin, 0.1 mg/ml streptomycin and 2.5 μg/ml amphotericin B. Test compounds were dissolved in DMSO and worms were incubated in medium in a final concentration of 10 μg/ml (10 ppm). An aliquot of the medium was used to determine the acetylcholine esterase activity in comparison to a negative control. The principle of measuring acetylcholine esterase as readout for anthelmintic activity was described in Rapson et al (1986) and Rapson et al (1987).

Meloidogyne incognita = Meloidogyne incognita (MELGIN) gall formation assay; type: in vivo; conditions: 336 h, read-out: nematicidal activity (percentage of gall formation)
Experimental: Solvent: 125.0 parts by weight of acetone
To produce a suitable preparation of active compound, 1 part by weight of active compound is mixed with the stated amount of solvent, and the concentrate is diluted with water to the desired concentration.
Vessels are filled with sand, a solution of the active ingredient, a suspension containing eggs and larvae of the southern root-knot nematode (Meloidogyne incognita) and salad seeds. The salad seeds germinate and the seedlings grow. Galls develop in the roots.
After 14 days the nematicidal activity is determined on the basis of the percentage of gall formation. 100% means no galls were found and 0% means the number of galls found on the roots of the treated plants was equal to that in untreated control plants.

[2] = test system: Dirofilaria immitis microfilariae; assay: microbe, parasite or virus in culture; conditions: 72 h, read-out: EC50 (reduction of motility)

Row | SMILES | mortality at 20 ppm (Haemonchus contortus) | Emax at 0.8 ppm (Haemonchus contortus) | Emax at 4 ppm (Haemonchus contortus) | Emax at 20 ppm (Haemonchus contortus) | mortality at 20 ppm (Cooperia curticei) | inhibition at 10 ppm [1] | pest or weed control at 20 ppm (Meloidogyne incognita) | EC50 [2]
1 | O=C(NCC(F)(F)c1ccc(-c2ccc(F)nc2)cc1Cl)c1ccccc1C(F)(F)F [Example 1-93, N-[2-[2-chloro-4-(6-fluoro-3-pyridyl)phenyl]-2,2-difluoro-ethyl]-2-(trifluoromethyl)benzamide] | 100% | 100% | 100% | 100% | 100% | ≥ 60% | 100% | < 5 µg/mL
2 | O=C(NCC(F)c1ccc(-c2cncc(Cl)c2)cc1Cl)c1ccccc1C(F)(F)F (stereo not drawn) [Example 1-77] | 100% |  |  |  | 100% | ≥ 60% |  | < 5 µg/mL
3 | O=C(NCC(F)c1ccc(-c2ccnc(F)c2)cc1Cl)c1ccccc1C(F)(F)F (stereo not drawn) [Example 1-78] | 100% |  |  |  | 100% | ≥ 60% |  | < 5 µg/mL
4 | O=C(NCC(F)c1ccc(-c2ccc(F)nc2)cc1Cl)c1ccccc1C(F)(F)F (stereo not drawn) [Example 1-74] | 100% | 100% | 100% | 100% | 100% | ≥ 60% | 90% | < 5 µg/mL
5 | O=C(NCC(F)(F)c1ccc(-n2cc(C(F)(F)F)cn2)cc1Cl)c1cccnc1C(F)(F)F [Example 1-89] | 100% |  |  |  | 100% | ≥ 60% | 100% | < 5 µg/mL
6 | CC(F)(CNC(=O)c1ccccc1Br)c1ccc(-c2cncc(F)c2)cc1Cl (stereo not drawn) [Example 1-100] | 100% |  |  |  | 100% | ≥ 60% |  | < 5 µg/mL
7 | O=C(NCCc1ccc(-c2ccc(F)nc2)cc1Cl)c1ccccc1C(F)(F)F [Example 1-44] | 100% | 100% | 100% | 100% | 100% | ≥ 60% | 90% | 
8 | O=C(NCC(F)c1ccc(-c2ccc(Cl)nc2)cc1Cl)c1ccccc1C(F)(F)F (stereo not drawn) [Example 1-73, N-{2-[2-chloro-4-(6-chloropyridin-3-yl)phenyl]-2-fluoroethyl}-2-(trifluoromethyl) benzamide] | 100% |  |  |  | 100% | ≥ 60% | 100% | < 5 µg/mL
9 | CC(F)(CNC(=O)c1ccccc1Cl)c1ccc(-c2cncc(F)c2)cc1Cl (stereo not drawn) [Example 1-99] | 100% |  |  |  | 100% | ≥ 60% |  | < 5 µg/mL
10 | O=C(NCC(F)c1ccc(-c2ccc(C(F)(F)F)nc2)cc1Cl)c1ccccc1C(F)(F)F (stereo not drawn) [Example 1-70] | 90% |  |  |  | 100% | ≥ 60% | 100% | < 5 µg/mL
